Values joined by “and” are separate entries in the source; they are usually repeats but may differ in a detail not shown here. Equal entries are not always repeated.
Experiments:
[1] = target: T1, ARISC (FL) (Homo sapiens, UniProt P46736+Q6UWZ7+Q9NXR7); assay: In-gel deubiquitylation assay, TAMRA-labeled K63-tetraubiquitin, ARISC; format: biochemical; settings: 10 μM or 100 μM inhibitor
T1 construct: full-length BRISC (FL), ARISC (FL); made in house; host or cells: Spodoptera frugiperda Sf9 insect cells (MultiBac)
Protocol: The inhibitor capzimin (Merck) was diluted in 1 mM DTT and incubated for 30 min at room temperature to reduce disulfide bonds required for inhibitor activity. […] DUBs were incubated with 750 nM TAMRA-labeled K63-tetraubiquitin (LifeSensors, SI6304T) for 10 min at 30 °C. Reactions were quenched by adding 2.5 μl of 4× SDS–PAGE loading dye (240 mM Tris-HCl pH 6.8, 40% v/v glycerol, 8% w/v SDS, 0.04% w/v bromophenol blue and 5% v/v β-mercaptoethanol). The samples were resolved on 4–12% NuPAGE Bis–Tris gels (Thermo Fisher Scientific). Gels were scanned using an iBright FL 1500 (Thermo Fisher Scientific) (excitation, 515–545 nm; emission, 568–617 nm; exposure, 500 ms).

[2] = target: T2, BRISC (FL) (Homo sapiens, UniProt P46736+Q15018+Q9NXR7); assay: Native MS of BRISC with inhibitor; settings: 10 μM BRISC, 1 mM inhibitor
T2 construct: full-length BRISC (FL), ARISC (FL); made in house; host or cells: Spodoptera frugiperda Sf9 insect cells (MultiBac)
Protocol: Samples were buffer-exchanged into 500 mM ammonium acetate using Zeba Spin (7-kDa molecular weight cutoff) desalting columns (Thermo Fisher Scientific). Samples were analyzed by nanoelectrospray ionization MS using a quadrupole orbitrap MS (Q-Exactive UHMR, Thermo Fisher Scientific) using gold–palladium-coated nanospray tips prepared in-house. The MS instrument was operated in positive ion mode using a capillary voltage of 1.5 kV, capillary temperature of 250 °C and S-lens radiofrequency of 200 V. In-source trapping was used with a desolvation voltage of −200 V for 4 μs. Extended trapping was not used. The quadrupole mass range was 2,000–15,000 m/z. Nitrogen gas was used in the higher-energy collisional dissociation cell with a trap gas pressure setting of 5. Orbitrap resolution was 6,250 and detector m/z optimization was low. Five microscans were averaged and an automatic gain control target of 2 × 10^5 was used. Mass calibration was performed by a separate injection of sodium iodide at a concentration of 2 μg μl^−1. Data processing was performed using QualBrowser (version 4.2.28.14) and deconvoluted using UniDec[82].

[3] = target: T3, BRISC (FL) / BRISCΔNΔC (Homo sapiens, UniProt P46736+Q15018+Q9NXR7); assay: Mass photometry of BRISC dimer formation; settings: for Dimer fraction: 50 nM BRISCΔNΔC
T3 construct: BRISCΔNΔC (MERIT40ΔN, Abraxas 2ΔC); made in house; host or cells: Spodoptera frugiperda Sf9 insect cells (MultiBac)
Protocol: Immediately before mass photometry measurement, the BRISC–inhibitor mix was diluted in 25 mM HEPES pH 7.5, 150 mM NaCl and 1 mM TCEP to 10 nM BRISC ([…]). Then, 12 μl of the diluted sample was used for the final mass photometry measurement, following autofocus stabilization. […] Next, 0.5 μl of inhibitor was mixed with 19.5 μl of 50 nM BRISCΔNΔC (2.5% v/v DMSO) and incubated at room temperature for 15 min. The BRISC–inhibitor mix was used directly for mass photometry measurement using buffer-free autofocus stabilization.
Microscope coverslips were prepared according to an established protocol. Experiments were performed using a OneMP mass photometer (Refeyn). Videos were recorded for 60 s using AcquireMP (Refeyn) and processed using DiscoverMP (Refeyn). Mass photometry image processing was previously described. Briefly, contrast-to-mass (C2M) calibration was performed using protein standards (66–669 kDa) diluted in buffer (25 mM HEPES pH 7.5, 150 mM NaCl and 1 mM TCEP). […] The mass distribution from each run was in the form of a histogram, where the count refers to each landing event and a Gaussian sum is fitted to the data. The relative amount of each species was calculated as the area of each Gaussian, where σ refers to the s.d. of the fitted Gaussian. The dimer fraction refers to the percentage of the total counts corresponding to the 564-kDa BRISCΔNΔC dimer complex. Curves and half-maximal effective concentration values were fitted and calculated using the GraphPad Prism (version 9.0) built-in dose–response equation for concentration of agonist versus response (variable slope).

Structure (SMILES) | inhibition of ARISC activity against tetraubiquitin [1] | BRISC dimers detected by native MS [2] | dimer formation with increasing inhibitor concentration (mass photometry) [3] | Dimer fraction ([3]; [Inhibitor (μM)] 2500) | Dimer fraction ([3]; [Inhibitor (μM)] 10000) | Dimer fraction ([3]; [Inhibitor (μM)] 5000)
O=C(NC1C2CNCC21)c1nn(C(=O)c2c(Cl)cccc2Cl)cc1NC(=O)c1c(Cl)cccc1Cl (stereo not shown) [FX-171-C] | did not inhibit | BRISC dimers with 4:4:4:4 stoichiometry were detected | dose-dependent increase in dimer formation | 0.36 and 0.38 and 0.35 | 0.31 and 0.43 and 0.4 | –
O=C(NC1CCNCC1)c1nn(C(=O)c2c(Cl)cccc2Cl)cc1NC(=O)c1c(Cl)cccc1Cl [JMS-175-2] | did not inhibit | BRISC dimers with 4:4:4:4 stoichiometry were detected | dose-dependent increase in dimer formation | – | 0.35 and 0.32 and 0.21 | 0.32 and 0.27 and 0.22
